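Abbreviation: GI50, concentration required for 50% inhibition of growth. TGI: total growth inhibition.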
What was measured:
Experiment in all cases: NCI anticancer screen, dose series, 384-well format
HCC-2998 colon = test system: HCC-2998 colon
NCI-H226 lung = test system: NCI-H226 lung
SF-295 CNS = test system: SF-295 CNS
OVCAR-3 ovarian = test system: OVCAR-3 ovarian
HOP-62 NSCLC = test system: HOP-62 NSCLC
SK-MEL-28 melanoma = test system: SK-MEL-28 melanoma
NCI-H460 NSCLC = test system: NCI-H460 NSCLC
NCI-H322M lung = test system: NCI-H322M lung
KM12 colon = test system: KM12 colon
NCI/ADR-RES ovarian = test system: NCI/ADR-RES ovarian
MALME-3M melanoma = test system: MALME-3M melanoma
UACC-62 melanoma = test system: UACC-62 melanoma
ACHN renal = test system: ACHN renal
CAKI-1 renal = test system: CAKI-1 renal
T-47D breast = test system: T-47D breast
CCRF-CEM leukemia = test system: CCRF-CEM leukemia
SF-539 CNS = test system: SF-539 CNS
OVCAR-4 ovarian = test system: OVCAR-4 ovarian
UO-31 renal = test system: UO-31 renal
COLO 205 colon = test system: COLO 205 colon
K-562 leukemia = test system: K-562 leukemia
EKVX NSCLC = test system: EKVX NSCLC
SK-OV-3 ovarian = test system: SK-OV-3 ovarian
HCT-15 colon = test system: HCT-15 colon
MOLT-4 leukemia = test system: MOLT-4 leukemia
U251 glioblastoma = test system: U251 glioblastoma
HOP-92 NSCLC = test system: HOP-92 NSCLC
IGROV1 ovarian = test system: IGROV1 ovarian
BT-549 breast = test system: BT-549 breast
HCT-116 colon = test system: HCT-116 colon
NCI-H522 lung = test system: NCI-H522 lung
UACC-257 melanoma = test system: UACC-257 melanoma
NCI-H23 lung = test system: NCI-H23 lung
SK-MEL-5 melanoma = test system: SK-MEL-5 melanoma
RXF 393 renal = test system: RXF 393 renal
SN12C renal = test system: SN12C renal
SF-268 CNS = test system: SF-268 CNS
HL-60(TB) leukemia = test system: HL-60(TB) leukemia
RPMI-8226 leukemia = test system: RPMI-8226 leukemia
A498 renal = test system: A498 renal
MDA-MB-231 breast = test system: MDA-MB-231 breast
MDA-MB-435 melanoma = test system: MDA-MB-435 melanoma
DU-145 prostate = test system: DU-145 prostate
MCF7 breast = test system: MCF7 breast
SNB-75 CNS = test system: SNB-75 CNS
MDA-MB-468 breast = test system: MDA-MB-468 breast
SNB-19 CNS = test system: SNB-19 CNS
LOX IMVI melanoma = test system: LOX IMVI melanoma
A549 NSCLC = test system: A549 NSCLC
SW-620 colon = test system: SW-620 colon
HT29 colon = test system: HT29 colon
HS 578T breast = test system: HS 578T breast
TK-10 renal = test system: TK-10 renal
OVCAR-5 ovarian = test system: OVCAR-5 ovarian
M14 melanoma = test system: M14 melanoma
PC-3 prostate = test system: PC-3 prostate
786-0 renal = test system: 786-0 renal
OVCAR-8 ovarian = test system: OVCAR-8 ovarian

Compound: CC1=C2C[C@H]3[C@@H](CC[C@@H]4CC(NS(C)(=O)=O)CC[C@@]43C)[C@@H]2CC[C@@]2(C1)O[C@@H]1C[C@H](C)CN[C@H]1[C@H]2C (stereo partly specified)
- GI50 (HCC-2998 colon): 3.47 µM
- TGI (HCC-2998 colon): 9.91 µM
- GI50 (NCI-H226 lung): 5.5 µM
- TGI (NCI-H226 lung): 17.6 µM
- GI50 (SF-295 CNS): 13.3 µM
- TGI (SF-295 CNS): 26.1 µM
- GI50 (OVCAR-3 ovarian): 3.97 µM
- TGI (OVCAR-3 ovarian): 11.5 µM
- GI50 (HOP-62 NSCLC): 4.47 µM
- TGI (HOP-62 NSCLC): 15.1 µM
- GI50 (SK-MEL-28 melanoma): 3.01 µM
- TGI (SK-MEL-28 melanoma): 6.71 µM
- GI50 (NCI-H460 NSCLC): 1.94 µM
- TGI (NCI-H460 NSCLC): 3.61 µM
- GI50 (NCI-H322M lung): 10.9 µM
- TGI (NCI-H322M lung): 22.9 µM
- GI50 (KM12 colon): 8.44 µM
- TGI (KM12 colon): 20.6 µM
- GI50 (NCI/ADR-RES ovarian): 13.7 µM
- TGI (NCI/ADR-RES ovarian): 26.7 µM
- GI50 (MALME-3M melanoma): 1.88 µM
- TGI (MALME-3M melanoma): 3.32 µM
- GI50 (UACC-62 melanoma): 10.7 µM
- TGI (UACC-62 melanoma): 22.6 µM
- GI50 (ACHN renal): 2.62 µM
- TGI (ACHN renal): 6.64 µM
- GI50 (CAKI-1 renal): 4.29 µM
- TGI (CAKI-1 renal): 15.8 µM
- GI50 (T-47D breast): 2.12 µM
- TGI (T-47D breast): 4.28 µM
- GI50 (CCRF-CEM leukemia): 1.95 µM
- TGI (CCRF-CEM leukemia): 3.74 µM
- GI50 (SF-539 CNS): 5.02 µM
- TGI (SF-539 CNS): 15.9 µM
- GI50 (OVCAR-4 ovarian): 5.29 µM
- TGI (OVCAR-4 ovarian): 14.8 µM
- GI50 (UO-31 renal): 3.9 µM
- TGI (UO-31 renal): 13.7 µM
- GI50 (COLO 205 colon): 2.46 µM
- TGI (COLO 205 colon): 5.34 µM
- GI50 (K-562 leukemia): 1.83 µM
- TGI (K-562 leukemia): 3.23 µM
- GI50 (EKVX NSCLC): 3.44 µM
- TGI (EKVX NSCLC): 8.77 µM
- GI50 (SK-OV-3 ovarian): 3.8 µM
- TGI (SK-OV-3 ovarian): 10.2 µM
- GI50 (HCT-15 colon): 3.89 µM
- TGI (HCT-15 colon): 13.6 µM
- GI50 (MOLT-4 leukemia): 1.83 µM
- TGI (MOLT-4 leukemia): 3.55 µM
- GI50 (U251 glioblastoma): 4.31 µM
- TGI (U251 glioblastoma): 14.2 µM
- GI50 (HOP-92 NSCLC): 3.4 µM
- TGI (HOP-92 NSCLC): 12.7 µM
- GI50 (IGROV1 ovarian): 1.88 µM
- TGI (IGROV1 ovarian): 3.47 µM
- GI50 (BT-549 breast): 4.17 µM
- TGI (BT-549 breast): 12.8 µM
- GI50 (HCT-116 colon): 3.83 µM
- TGI (HCT-116 colon): 12.7 µM
- GI50 (NCI-H522 lung): 3.46 µM
- TGI (NCI-H522 lung): 8.3 µM
- GI50 (UACC-257 melanoma): 2.19 µM
- TGI (UACC-257 melanoma): 3.64 µM
- GI50 (NCI-H23 lung): 14.9 µM
- TGI (NCI-H23 lung): 28.2 µM
- GI50 (SK-MEL-5 melanoma): 1.72 µM
- TGI (SK-MEL-5 melanoma): 3.12 µM
- GI50 (RXF 393 renal): 2.98 µM
- TGI (RXF 393 renal): 9.2 µM
- GI50 (SN12C renal): 3.89 µM
- TGI (SN12C renal): 13 µM
- GI50 (SF-268 CNS): 3.22 µM
- TGI (SF-268 CNS): 9.73 µM
- GI50 (HL-60(TB) leukemia): 3.3 µM
- TGI (HL-60(TB) leukemia): 12.2 µM
- GI50 (RPMI-8226 leukemia): 3.72 µM
- TGI (RPMI-8226 leukemia): 11.2 µM
- GI50 (A498 renal): 2.99 µM
- TGI (A498 renal): 7.76 µM
- GI50 (MDA-MB-231 breast): 11.6 µM
- TGI (MDA-MB-231 breast): 23.8 µM
- GI50 (MDA-MB-435 melanoma): 12.4 µM
- TGI (MDA-MB-435 melanoma): 25 µM
- GI50 (DU-145 prostate): 5.47 µM
- TGI (DU-145 prostate): 16.6 µM
- GI50 (MCF7 breast): 3.24 µM
- TGI (MCF7 breast): 11.9 µM
- GI50 (SNB-75 CNS): 3.82 µM
- TGI (SNB-75 CNS): 15 µM
- GI50 (MDA-MB-468 breast): 2.08 µM
- TGI (MDA-MB-468 breast): 3.96 µM
- GI50 (SNB-19 CNS): 5.22 µM
- TGI (SNB-19 CNS): 16.4 µM
- GI50 (LOX IMVI melanoma): 1.88 µM
- TGI (LOX IMVI melanoma): 3.6 µM
- GI50 (A549 NSCLC): 4 µM
- TGI (A549 NSCLC): 14.2 µM
- GI50 (SW-620 colon): 13.8 µM
- TGI (SW-620 colon): 26.8 µM
- GI50 (HT29 colon): 1.9 µM
- TGI (HT29 colon): 3.55 µM
- GI50 (HS 578T breast): 10.8 µM
- TGI (HS 578T breast): 22.7 µM
- GI50 (TK-10 renal): 2.75 µM
- TGI (TK-10 renal): 7.38 µM
- GI50 (OVCAR-5 ovarian): 13.8 µM
- TGI (OVCAR-5 ovarian): 26.8 µM
- GI50 (M14 melanoma): 2.49 µM
- TGI (M14 melanoma): 5.93 µM
- GI50 (PC-3 prostate): 3.6 µM
- TGI (PC-3 prostate): 11.5 µM
- GI50 ([…]-0 renal): 2.21 µM
- TGI (786-0 renal): 5.06 µM
- GI50 (OVCAR-8 ovarian): 13.4 µM
- TGI (OVCAR-8 ovarian): 26.3 µM
